We go through two molecules from US6713057B1, “Compositions and methods for modulating serum cholesterol” (The Johns Hopkins University, priority 1999, dated 2004).

The test system of data set [1] is SREBP-1. The experiment in a line: Indirect immunofluorescence of SREBP-1 subcellular localization. It counts as cell-based, human. To be noted: 30 minutes after initiating treatment; TNF-α 10 ng/ml, sphingomyelinase 100 mUnits, C2-ceramide 10 μM. The method, then:
FIGS. 5A-5D show indirect immunofluorescence of SREBP-1. FIGS. 5A-5D are discussed in more detail as follows. SREBP-1 was visualized with rabbit polyclonal antibodies directed towards the N-terminal DNA binding domain which is common to both the precursor and mature forms. Cells were maintained in media supplemented with 1 μg/ml 25-hydroxycholesterol and 15 μg/ml cholesterol for 24 hours before the experiment. Immunofluorescence was performed as described. All magnifications are 40× and all photographs were taken of samples that were fixed 30 minutes after initiating treatment. FIG. 5A) Control cells, FIG. 5B) Cells treated with TNF-α (10 ng/ml), FIG. 5C) Cells treated with sphingomyelinase (100 mUnits), FIG. 5D) Cells treated with C2-ceramide (10 μM).
Cultured HH-25 cells were grown on coverslips and treated as described. After treatment, the cells were washed 3×5 minutes with PBS containing 1 mM MgCl2 and 0.1 mM CaCl2 (solution A). The cells were fixed with 3% paraformaldehyde in solution A for 10 minutes and permeabilized with 0.5% Triton X-100 in solution A for 6 minutes at room temperature. The coverslips were then washed 3×5 minutes with solution A.
Primary antibody (anti-SREBP1) was used at a dilution of […] in PBS and applied for 1 hour with gentle shaking. The cells were washed as above and a FITC conjugated anti-rabbit IgG secondary antibody, was applied for ½ hour according to the instructions of the manufacturer. The coverslips were washed, mounted on microscope slides and were viewed and photographed at the indicated magnification on a Zeiss Axiovert 25 fluorescence microscope.

Data set [2] concerns HH-25 cells. The experiment in a line: DNA laddering assay (apoptosis) in hepatocytes. Conditions: 1 hour treatment, concentrations as in maturation studies, refed 6 hours.
Procedure: Cells were treated with either TNF-α, sphingomyelinase or C2-ceramide for 1 hour at concentrations identical to those used in the SREBP-1 maturation studies. The cells were then washed twice with minimal essential medium and refed with media A for 6 hours. […] Genomic DNA was electrophoresed and stained with ethidium bromide.
For data set [3], the system named is SREBP-1. The experiment in a line: SREBP-1 proteolysis (maturation) assay, Western immunoblot of nuclear fractions, HH-25 hepatocytes. It counts as cell-based, human. Conditions: for increase in mass of the mature form of SREBP-1: sterol supplemented media. The method, then: FIGS. 2A-2C illustrate effects of TNF-α sphingomyelinase and C2-ceramide on the kinetics of SREBP-1 maturation—FIGS. 2A-2C is explained in more detail as follows: Cells were maintained in media supplemented with 1 μg/ml 25-hydroxy cholesterol and 15 μg/ml cholesterol for 24 hours before the experiment. The cells were treated for the indicated time as described in materials and methods. The cells were then harvested in PBS, pelleted and frozen. Lysis and nuclear fractionation were performed as described. Nuclear fractions (50 μg of protein) were electrophoresed on a 7.5% polyacrylamide gel and transferred to a PVDF membrane. Western blotting was performed as described. Band intensity was quantified via densitometry. Error bars represent ±one standard deviation from the mean. 2A) The kinetics of SREBP maturation as measured by the increase in mature SREBP-1 are plotted. Fold increase was calculated by comparing each time point to the corresponding control value (TNF-α is represented by stippled bars, bacterial sphingomyelinase is represented by light gray bars and C2-ceramide by the dark bars.) 2B) Cells were treated with TNF-α (10 ng/ml) and prepared as described above. The bands corresponding to the precursor and mature forms of SREBP-1 were quantified and their ratio plotted. 2C) Representative Western blots from which numerical data was derived. Incubation time is indicated above and applies to all conditions. The membranes were exposed to film for 15 seconds. P and M denote the precursor and mature forms of SREBP-1 respectively.
FIGS. 3A-3C show effects of TNF-α, sphingomyelinase and C2-ceramide concentration on SREBP-1 maturation—The FIGS. 3A-3C are explained in more detail as follows. […] Nuclear pellets were prepared and electrophoresed (50 μg of protein). The bands corresponding to the precursor and mature forms of SREBP-1 were quantified. The precursor to mature ratios were normalized to a single control to facilitate comparison. The control ratio was arbitrarily assigned a value of 1. A Unit of sphingomyelinase activity hydrolyzes 1.0 μmol of sphingomyelin per minute at 37° C. FIG. 3A (ng/ml TNF-α); FIG. 3B (mUnits of sphingomyelinase); FIG. 3C (micromolar C2-ceramide).
HH-25 cells were grown in alpha-minimal essential media supplemented with 100 units/ml penicillin, 100 µg/ml streptomycin, […], 0.1 μM selenium, 5.5 μg/ml transferrin, 0.5 μg/ml linoleic acid and 10% fetal bovine serum (media A). The cells were incubated in serum free F10 media for 30 to 60 minutes prior to initiating treatment with TNF-α, C2-ceramide or sphingomyelinase.
Following treatment, the cells were washed with 5 ml of PBS and pelleted at 1500×g for 10 minutes at 4° C. The pellet was stored at −70° C. and lysed in 0.5 ml buffer A (10 mM HEPES pH 7.4, 5 mM EDTA, 0.25 mM EGTA, 50 mM NaF, 7 mM β-mercaptoethanol, 0.35M sucrose, 0.1% NP-40 and protease inhibitors 1 mM PMSF, 2 μg/ml aprotinin, 10 μg/ml leupeptin and 5 μg/ml pepstatin). The lysate was centrifuged at 12,000×g for 15 minutes at 4° C. to prepare a nuclear fraction. The protein concentration of these samples was determined by the method of Lowry et al. al. (19).
50 μg of nuclear protein was separated by gel electrophoresis on a 7.5% polyacrylamide gel. Gels were calibrated by high range molecular weight markers (Bio-Rad product #161-0303, New York, N.Y.) which were transferred to a polyvinyl difluoride (PVDF) membrane and visualized with coomassie staining. Rabbit polyclonal antibodies against SREBP-1 were used at 0.5 μg/ml according to the instructions of the manufacturer. The antibody was visualized with horseradish peroxidase conjugated anti-rabbit IgG made in donkey (Amersham) using the Enhanced Chemiluminescence (ECL) Western Blotting Detection System Kit (Amersham). PVDF membranes were exposed to Hyperfilm ECL (Amersham) for the indicated time. Immunoblots were quantified via densitometry performed on a PDI densitometer scanner (model 20J7) coupled to a SPARC IRC workstation.
(Immunoblotting shows a protein as a band on a membrane.)

On to `CCCCCCCCCCCCC/C=C/[C@@H](O)[C@H](CO)NC(C)=O` [C2-ceramide, N-acetylsphingosine, reference compound], for which the “subcellular localization of SREBP-1 (staining pattern)” value in data set [1] is “intense nuclear staining and little extra-nuclear staining”. Further, in data set [2], the “induction of apoptosis (160 bp DNA ladder)” value is listed as “did not induce apoptosis”. In addition, the Emax in data set [3] (Homo sapiens, Hepatocyte, 1 μM of C2-ceramide, read-out: percent of maximal effect on SREBP-1 maturation) was determined as 81%. Further, the “persistence of the increase in mature SREBP-1” value in data set [3] (after 60 minutes) is listed as “persistent elevation”.
For the molecule TNF-α, in data set [1], the “subcellular localization of SREBP-1 (staining pattern)” value was “intense nuclear staining and little extra-nuclear staining”. Besides, the “induction of apoptosis (160 bp DNA ladder)” value in data set [2] is recorded as “did not induce apoptosis”. In addition, in data set [3], the “concentration giving maximal effect on SREBP-1 maturation” value turned out to be 10 ng/mL and the “dependence of extent of SREBP-1 maturation on concentration” value is recorded as “did not vary appreciably with concentration”. The “maximal decrease in the precursor to mature SREBP-1 ratio” value in data set [3] (45 minutes after TNF-α (10 ng/ml) was added) is on record as 1.5 fold. Moreover, the “increase in mass of the mature form of SREBP-1” value in data set [3] (after 5 minutes of incubation) amounted to 2 fold. Besides, the “increase in mass of the mature form of SREBP-1” value in data set [3] (after 15 minutes of treatment) was 3 fold.
